Results taken from patent publication US9266835B2, “Quinoline derivatives useful as CB-1 inverse agonists” (JANSSEN PHARMACEUTICA NV, priority 2014, dated 2016).
Where two headings read alike, the source gives them in different places.

Key:
[1] = Chronic DIO Mouse, second study: plasma and brain concentrations; assay type: in vivo; conditions: DIO mice; for concentration at 2 h: male, mouse, oral
Experimental: (§1) Male 14-20-week old diet-induced obese mice were ordered from Taconic. Mice were started on a 60% fat diet (D12492, Research Diets, New Brunswick, N.J.) at 6 weeks of age. Mice were single-housed.
(§2) Test compounds were formulated in 10% PEG400 and 10% solutol. Test compounds were administered by oral gavage (5 ml kg^−1).
The test compound was formulated in 10% PEG400 and 10% solutol. […] At the end of the experiment, the mice were euthanized and blood and tissues were collected.
(§3) In a second study, Compound #44 was tested according to the procedure as described above, with results as listed in Tables BIO-5A through 5G, below.

[2] = Chronic DIO Mouse, second study (food intake, body weight, insulin tolerance test, glucose tolerance test, plasma insulin, fed blood glucose); assay type: in vivo; conditions: DIO mice
Experimental: as §1, §2
The test compound was formulated in 10% PEG400 and 10% solutol. DIO mice received vehicle, test compound (@ 1, 3 and 10 mg/kg) daily for 26 days. At the end of the experiment, the mice were euthanized and blood and tissues were collected.
Body weight and food weight (food intake) were monitored daily for days 1-5 and twice weekly thereafter. Fed blood glucose was measured weekly.
An insulin tolerance test (0.5 U/kg Humulin, ip) was performed on day 19 after a 4 hour food removal. Blood glucose was measured at 0, 15, 30, 60 and 120 minutes after insulin. […] Blood glucose was measured at 0, 30, 60 and 120 minutes after glucose challenge.
Blood glucose was measured from the tail vein with a Lifescan glucometer. Plasma insulin was measured with an ELISA or HTRF kit (Cisbio). Plasma parameters were measured with an Olympus clinical chemistry analyzer.
as §3

With `O=c1cc(NC2CCN(S(=O)(=O)C(F)(F)F)CC2)c2cc(C(c3ccc(Cl)cc3)c3ccc(Cl)cc3)ccc2[nH]1` [Compound #44, 6-(bis(4-chlorophenyl)methyl)-4-(1-(trifluoromethylsulfonyl)piperidin-4-ylamino)quinolin-2(1H)-one] the “Brain concentration (Std Dev)” value ([1]; 0.3 mg/kg, Day 2, 2 hours post dose) was “BLOQ*”, the “Brain concentration (Std Dev)” value ([1]; 0.3 mg/kg, Day 23, 2 hours post dose) was “BLOQ**” and the “Brain concentration (Std Dev)” value ([1]; 1 mg/kg, Day 2, 2 hours post dose) was “BLOQ*”. For the same compound, the “Brain concentration (Std Dev)” value ([1]; 3 mg/kg, Day 2, 2 hours post dose) was “BLOQ*”, the concentration at 2 h ([1]; brain, 1 mg/kg, 1 mg/kg, Day 23, 2 hours post dose, read-out: Brain concentration (Std Dev)) was 36.8 ng/g and the concentration at 2 h ([1]; brain, 3 mg/kg, 3 mg/kg, Day 23, 2 hours post dose, read-out: Brain concentration (Std Dev)) was 100 ng/g. For the same compound, the concentration at 2 h ([1]; brain, 10 mg/kg, 10 mg/kg, Day 2, 2 hours post dose, read-out: Brain concentration (Std Dev)) was 62.3 ng/g, the concentration at 2 h ([1]; brain, 10 mg/kg, 10 mg/kg, Day 23, 2 hours post dose, read-out: Brain concentration (Std Dev)) was 201 ng/g and the concentration at 2 h ([1]; plasma, 0.3 mg/kg, 0.3 mg/kg, Day 2, 2 hours post dose, read-out: Plasma concentration (Std Dev)) was 61.3 ng/mL. The concentration at 2 h ([1]; plasma, 0.3 mg/kg, 0.3 mg/kg, Day 23, 2 hours post dose, read-out: Plasma concentration (Std Dev)) was 192 ng/mL, the concentration at 2 h ([1]; plasma, 1 mg/kg, 1 mg/kg, Day 2, 2 hours post dose, read-out: Plasma concentration (Std Dev)) was 310 ng/mL and the concentration at 2 h ([1]; plasma, 1 mg/kg, 1 mg/kg, Day 23, 2 hours post dose, read-out: Plasma concentration (Std Dev)) was 515 ng/mL. It also gave a concentration at 2 h ([1]; plasma, 3 mg/kg, 3 mg/kg, Day 2, 2 hours post dose, read-out: Plasma concentration (Std Dev)) of 759 ng/mL, a concentration at 2 h ([1]; plasma, 3 mg/kg, 3 mg/kg, Day 23, 2 hours post dose, read-out: Plasma concentration (Std Dev)) of 1560 ng/mL and a concentration at 2 h ([1]; plasma, 10 mg/kg, 10 mg/kg, Day 2, 2 hours post dose, read-out: Plasma concentration (Std Dev)) of 2490 ng/mL. The concentration at 2 h ([1]; plasma, 10 mg/kg, 10 mg/kg, Day 23, 2 hours post dose, read-out: Plasma concentration (Std Dev)) was 5280 ng/mL, the “Insulin Tolerance Test, Blood Glucose AUC” value ([2]; 0.3 mg/kg) was 20233.13 mg·min/dL and the “Intraperitoneal Glucose Tolerance Test Blood Glucose AUC” value ([2]; 0.3 mg/kg) was 21550.00 mg·min/dL. The “Plasma Insulin (Std Err)” value ([2]; 0.3 mg/kg) was 3.89 (0.31) ng/mL, the “Intraperitoneal Glucose Tolerance Test Mean Blood Glucose” value ([2]; 0.3 mg/kg, 0 min after glucose) was 155.44 mg/dL and the “Insulin Tolerance Test, Mean Blood Glucose” value ([2]; 0.3 mg/kg, 0 min after insulin) was 185.00 mg/dL. For the same compound, the “Insulin Tolerance Test, Mean Blood Glucose” value ([2]; 0.3 mg/kg, 15 min after insulin) was 172.38 mg/dL, the “Intraperitoneal Glucose Tolerance Test Mean Blood Glucose” value ([2]; 0.3 mg/kg, 30 min after glucose) was 204.33 mg/dL and the “Insulin Tolerance Test, Mean Blood Glucose” value ([2]; 0.3 mg/kg, 30 min after insulin) was 164.13 mg/dL. For the same compound, the “Intraperitoneal Glucose Tolerance Test Mean Blood Glucose” value ([2]; 0.3 mg/kg, 60 min after glucose) was 187.67 mg/dL, the “Insulin Tolerance Test, Mean Blood Glucose” value ([2]; 0.3 mg/kg, 60 min after insulin) was 169.38 mg/dL and the “Intraperitoneal Glucose Tolerance Test Mean Blood Glucose” value ([2]; 0.3 mg/kg, 120 min after glucose) was 154.78 mg/dL. The “Insulin Tolerance Test, Mean Blood Glucose” value ([2]; 0.3 mg/kg, 120 min after insulin) was 165.13 mg/dL, the “Fed Blood Glucose (Std Err)” value ([2]; 0.3 mg/kg, Day 0) was 165.4 (8.16) mg/dL and the “Mean Body Weight” value ([2]; 0.3 mg/kg, Day 1) was 40.78 Grams. The “Mean Body Weight” value ([2]; 0.3 mg/kg, Day 2) was 40.87 Grams, the “Mean Daily Food Intake” value ([2]; 0.3 mg/kg, Day 2) was 2.51 Grams and the “Mean Body Weight” value ([2]; 0.3 mg/kg, Day 3) was 40.77 Grams. The “Mean Daily Food Intake” value ([2]; 0.3 mg/kg, Day 3) was 2.92 Grams, the “Mean Body Weight” value ([2]; 0.3 mg/kg, Day 4) was 40.33 Grams and the “Mean Daily Food Intake” value ([2]; 0.3 mg/kg, Day 4) was 2.76 Grams. The “Mean Body Weight” value ([2]; 0.3 mg/kg, Day 5) was 40.53 Grams, the “Mean Daily Food Intake” value ([2]; 0.3 mg/kg, Day 5) was 2.64 Grams and the “Mean Body Weight” value ([2]; 0.3 mg/kg, Day 8) was 40.87 Grams. The “Mean Daily Food Intake” value ([2]; 0.3 mg/kg, Day 8) was 2.80 Grams, the “Mean Body Weight” value ([2]; 0.3 mg/kg, Day 10) was 41.06 Grams and the “Mean Daily Food Intake” value ([2]; 0.3 mg/kg, Day 10) was 2.81 Grams. The “Mean Body Weight” value ([2]; 0.3 mg/kg, Day 11) was 41.61 Grams, the “Mean Daily Food Intake” value ([2]; 0.3 mg/kg, Day 11) was 2.68 Grams and the “Fed Blood Glucose (Std Err)” value ([2]; 0.3 mg/kg, Day 18) was 161.22 (6.29) mg/dL. The “Insulin Tolerance Test, Blood Glucose AUC” value ([2]; 1 mg/kg) was 21698.33 mg·min/dL, the “Intraperitoneal Glucose Tolerance Test Blood Glucose AUC” value ([2]; 1 mg/kg) was 22102.50 mg·min/dL and the “Plasma Insulin (Std Err)” value ([2]; 1 mg/kg) was 3.12 (0.64) ng/mL. For the same compound, the “Intraperitoneal Glucose Tolerance Test Mean Blood Glucose” value ([2]; 1 mg/kg, 0 min after glucose) was 156.60 mg/dL, the “Insulin Tolerance Test, Mean Blood Glucose” value ([2]; 1 mg/kg, 0 min after insulin) was 181.70 mg/dL and the “Insulin Tolerance Test, Mean Blood Glucose” value ([2]; 1 mg/kg, 15 min after insulin) was 193.89 mg/dL. The “Intraperitoneal Glucose Tolerance Test Mean Blood Glucose” value ([2]; 1 mg/kg, 30 min after glucose) was 225.20 mg/dL, the “Insulin Tolerance Test, Mean Blood Glucose” value ([2]; 1 mg/kg, 30 min after insulin) was 170.56 mg/dL and the “Intraperitoneal Glucose Tolerance Test Mean Blood Glucose” value ([2]; 1 mg/kg, 60 min after glucose) was 185.50 mg/dL. The “Insulin Tolerance Test, Mean Blood Glucose” value ([2]; 1 mg/kg, 60 min after insulin) was 182.78 mg/dL, the “Intraperitoneal Glucose Tolerance Test Mean Blood Glucose” value ([2]; 1 mg/kg, 120 min after glucose) was 155.00 mg/dL and the “Insulin Tolerance Test, Mean Blood Glucose” value ([2]; 1 mg/kg, 120 min after insulin) was 179.40 mg/dL. The “Fed Blood Glucose (Std Err)” value ([2]; 1 mg/kg, Day 0) was 170.80 (5.99) mg/dL, the “Mean Body Weight” value ([2]; 1 mg/kg, Day 1) was 40.60 Grams and the “Mean Body Weight” value ([2]; 1 mg/kg, Day 2) was 40.78 Grams. For the same compound, the “Mean Daily Food Intake” value ([2]; 1 mg/kg, Day 2) was 2.84 Grams, the “Mean Body Weight” value ([2]; 1 mg/kg, Day 3) was 40.85 Grams and the “Mean Daily Food Intake” value ([2]; 1 mg/kg, Day 3) was 2.79 Grams. The “Mean Body Weight” value ([2]; 1 mg/kg, Day 4) was 40.36 Grams, the “Mean Daily Food Intake” value ([2]; 1 mg/kg, Day 4) was 2.45 Grams and the “Mean Body Weight” value ([2]; 1 mg/kg, Day 5) was 40.42 Grams. For the same compound, the “Mean Daily Food Intake” value ([2]; 1 mg/kg, Day 5) was 2.49 Grams, the “Mean Body Weight” value ([2]; 1 mg/kg, Day 8) was 40.16 Grams and the “Mean Daily Food Intake” value ([2]; 1 mg/kg, Day 8) was 2.63 Grams.
